From patent US7892830B2, “Clonal culture of human pluripotent stem cells” (Wisconsin Alumni Research Foundation, priority 2007, dated 2011)
Where a name gives a salt, the structure may show the parent alone.

Key:
H1 human ES cells [1] = test: 6-well cloning efficiency assay in TeSR1 medium on Matrigel, colonies counted manually; type: cell-based; conditions: for max. CE (%): cloning efficiency = CFU per number of plated single cells; for confirmation in 6-well assay as active in increasing cloning efficiency: 6-well plates, varying concentrations
From the text: As described above, a difficulty in growing pluripotent cells, like ES cells, in culture is their low cloning efficiency. As used herein, “cloning efficiency” means a number of cells individualized by trypsin that form new ES cell colonies divided by the number of individual cells plated in a well of a culture dish. In our prior experience with growing human ES cells in defined and animal-free conditions on a matrix (e.g., Matrigel®), cloning efficiency was very low (i.e., less than 0.1%). This contrasts with prior experience using culture systems based on medium conditioned by exposure to fibroblasts, where the cloning efficiency, while still low (i.e., less than 2%), was high enough to initiate clonal ES cell colonies. As disclosed herein, the addition of a small molecule to the culture medium in which human ES cells are grown permits the ES cell cultures to be clonally cultivated in a manner that is extremely difficult without the addition of the small molecule. Several small molecules are exemplified herein for this purpose.
For these assays, 10,000 cells per well were plated on Matrigel®—coated plates and then treated every other day for a total of four days. with the small molecules as described above. To evaluate the effect of the tested small molecules on cloning efficiency, we manually counted colonies after 10 days.
We determined cloning efficiency (CE; the number of colony forming units (CFU) per number of plated single cells, trypsin/EDTA treated). HA-100 was the first molecule identified in the small molecule screen, following which other structurally similar small molecules were also tested for cloning efficiency.

PKC = conditions: cited from earlier work
PKG = conditions: cited from earlier work
PKA = conditions: cited from earlier work
ROCK1/ROCK2 = conditions: read-out: IC50 ROCK1/ROCK2; competing with ATP; cited from earlier work
H1 human ES cells [2] = test: Example 2 colony formation with ROCK inhibitors, ALP assay and examination by eye; type: cell-based; conditions: for concentration showing the most colony formation with the ALP assay: tested 5 nM to 20 μM, TeSR1, Matrigel
Protocol: The experiments described in Example 1 were repeated with H-1152 (EMD Chemicals, Inc./Calbiochem; San Diego, Calif.) and Y-27632 (EMD Chemicals, Inc./Calbiochem). Briefly, H-1152 or Y-27632 was dissolved in DMSO to a concentration of 20 mM. H1 human ES cells were grown on Matrigel®—coated plates in TeSR™1 medium at a density of 100,000 cells per ml. H-1152 and Y-27632 were added to wells on their own plates at a final concentration of 20 μM, 15 μM, 10 μM or 5 μM in DMSO. DMSO and HA-100 (10 μM) were used as the negative and positive controls, respectively. The plates were treated every other day for a total of four days. Colony formation was detected with the ALP assay described above.
In a second experiment, H-1152 and Y-27632 were added to wells on their own plates at a final concentration of 5 μM, 500 nM, 50 nM or 5 nM in DMSO. DMSO and HA-100 (10 μM) were used as the negative and positive controls, respectively. The plates were treated as described above.

H1 human ES cells [3] = test: Fluorometric high-throughput ALP (DiFMUP) screen for colony formation, 96-well; type: cell-based; conditions: 10 μM, 500 cells per well, TeSR1, a typical hit read above 200,000
Protocol: The screen was conducted using a fluorescent, high-throughput assay to screen small molecules for their ability to enhance cloning efficiency. A soluble, non-fluorescent substrate (6,8-difluoro-4-methylumbelliferyl phosphate, DiFMUP) was converted to a fluorescent product by an enzyme specific for undifferentiated, human ES cells called alkaline phosphatase (ALP).
In wells that had colonies larger than 2,000 cells, and which formed 12 days after seeding 500 individualized human ES cells in a 96-well plate, increased fluorescence from DiFMUP hydrolyzed by ALP indicated any well that contained a compound that enabled colony formation. […] Thus, this assay tested both for clonal propagation and for maintenance of undifferentiated status.
The screen used a small molecule library made up of characterized compounds with known bioactivity that was purchased from Sigma-Aldrich (St. Louis, Mo.). Members of the library were dissolved in DMSO to a concentration of 1 mM. All other chemicals used were purchased from Sigma, unless otherwise indicated in the text. H1 human ES cells (WiCell Research Institute; Madison, Wis.) were grown in the defined TeSR™1 medium, which was prepared as described in Ludwig et al., supra.
The assay was performed at the Keck-UWCCC Small Molecule Screening Facility (University of Wisconsin—Madison; Madison, Wis.) in 96-well microplates (Nunclon/Nunc; Roskilde, Denmark) using a Beckman Biomek® FX Laboratory Workstation and a Perkin Elmer VictorIII® Plate Reader. The microplates were coated with Matrigel® (#354230, growth factor reduced; BD Bioscience; San Jose, Calif.) at 0.3 mg/ml in DMEM/F12 (Invitrogen; Carlsbad, Calif.) for 1 hour at room temperature.
H1 human ES cells were grown in 6-well Nunclon® dishes to day 5, and then treated with 1 ml Trypsin/EDTA (Invitrogen) containing 1% chick serum for 5 minutes at 37° C. Trypsin was quenched with 20% FBS in DMEM/F12, and the cells were collected by centrifugation for 1.5 minutes at 200 RCF. After aspiration of the medium, cells were re-suspended in TeSR™1 medium to a density of 5,000 cells per ml. Of this cell suspension, 100 μL was dispensed into each well, and 1 μL of a […] DMSO solution of inhibitor was added and mixed by pipetting, resulting in a final inhibitor concentration of 10 μM. The plates were incubated at 5% CO2 at 37° C. for 2 days. Then, the medium was exchanged with TeSR™1 medium not having the cloning molecule. […]
To detect colony formation, we used a fluorometric, ALP assay (EnzChek®; Invitrogen). […] In wells that had colonies, increased fluorescence indicated any well containing a compound that led to colony formation. […] Plates were read by a multi-plate reader (excitation 355 nm, emission 455 nm, at 0.1 ms emission intervals).

Oct4 = Oct4 immunofluorescence of cloned colonies; type: cell-based, human; conditions: colonies from HA-100 treatment
From the text: We also tested the resulting colonies from HA-100 treatment for the presence of Oct4, an intracellular marker for pluripotent ES cells.

human ES cells [4] = test: Cloning efficiency in conditioned medium (CM); type: cell-based; conditions: CM substituted for TeSR1, otherwise identical treatment
Protocol: (§1) We have also tested these small molecules for effects on human ES cell cloning on other medium. We tested the effect on conditioned medium (CM) substituting TeSR™1 medium with CM and otherwise identical treatment. The cloning efficiency of the medium increased with addition of HA-100. In addition, we performed a similar test with unconditioned medium to which 100 ng/μl of bFGF had been added.

human ES cells [5] = test: Cloning efficiency in unconditioned medium with added bFGF; type: cell-based; conditions: unconditioned medium with 100 ng/μl bFGF, compared to control cultures lacking HA-100
Protocol: as §1

Compound | IC50 (PKC) | IC50 (PKG) | max. CE (%) (H1 human ES cells [1]; TeSR1, Matrigel) | IC50 (PKA) | result of small molecule screen (colony formation, ALP fluorescence) (H1 human ES cells [3]) | confirmation in 6-well assay as active in increasing cloning efficiency (H1 human ES cells [1]) | also measured
Cl.Cl.O=S(=O)(c1cccc2cnccc12)N1CCCNCC1 [HA-1077, 1-(5-isoquinolinesulfonyl)homopiperazine dihydrochloride] | – | – | – | – | – | – | effect on cloning efficiency of human ES cells (H1 human ES cells [1]; related small molecules tested after HA-100): increased cloning efficiency
O=S(=O)(NCCNC/C=C/c1ccc(Br)cc1)c1cccc2cnccc12 [H-89, N-[2-p-bromo-cinnamylamino)ethyl]-5-isoquinolinesulfonamide dihydrochloride] | 31.7 µM | 0.48 µM | 2.5% | – | – | – | –
CC1CN(S(=O)(=O)c2cccc3cnccc23)CCN1 (centres unmarked) [iso H-7, 1-(5-isoquinolinesulfonyl)-3-methylpiperazine] | > 6 µM | > 5.8 µM | <1% | > 3 µM | – | – | –
C[C@@H](N)[C@H]1CC[C@H](C(=O)Nc2ccncc2)CC1 [Y-27632, (+)-(R)-trans-4-(1-aminoethyl)-N-(4-pyridyl)cyclohexanecarboxamide dihydrochloride] | – | – | – | – | – | – | IC50 (ROCK1/ROCK2): 0.8 µM; colony formation by eye compared with HA-100 (at 10 μM) (H1 human ES cells [2]; concentrations above 5 μM): equal or better than HA-100; concentration showing the most colony formation with the ALP assay (H1 human ES cells [2]): 5 µM
quipazine dimaleate | – | – | – | – | hits | only HA-100 could be confirmed | –
Cc1cncc2cccc(S(=O)(=O)N3CCCNC[C@@H]3C)c12 [H-1152, (S)-(+)-2-methyl-1-[(4-methyl-5-isoquinolinyl)sulfonyl]homopiperazine dihydrochloride] | – | – | – | – | – | – | colony formation by eye compared with HA-100 (at 10 μM) (H1 human ES cells [2]; concentrations above 500 nM): equal or better than HA-100; working concentration compared with HA-100 (H1 human ES cells [2]; facilitating clonal growth): ten times lower; concentration showing the most colony formation with the ALP assay (H1 human ES cells [2]): 0.5 µM
O=S(=O)(c1cccc2cnccc12)N1CCNCC1 [HA-100, 1-(5-isoquinolinesulfonyl)piperazine hydrochloride] | 12 µM | 4 µM | 2% | 8 µM | hits | confirmed | Oct4 expression in cloned colonies (immunofluorescence) (Oct4): maintenance of Oct4 expression; effect on cloning efficiency in conditioned medium (human ES cells [4]): increased; effect on cloning efficiency in unconditioned medium (human ES cells [5]): increased cloning efficiency
CC1(C)OC(=O)C=CC2(C)C1CC(O)C1(C)C2CCC2(C)C(c3ccoc3)OC(=O)C3OC321 (centres unmarked) [obacunol] | – | – | – | – | hits | only HA-100 could be confirmed | –
CC(C)CCC[C@@H](C)[C@H]1CC[C@H]2C3=CC[C@H]4C[C@@H](O)CC[C@]4(C)[C@H]3CC[C@]12C [lathosterol] | – | – | – | – | hits | only HA-100 could be confirmed | –
CC1CNCCN1S(=O)(=O)c1cccc2cnccc12 (centres unmarked) [H-7, 1-(5-isoquinolinesulfonyl)-2-methylpiperazine] | 6 µM | 5.8 µM | <1% | 3 µM | – | – | –
Cl.N=C(N)NCCNS(=O)(=O)c1cccc2cnccc12 [HA-1004, N-(2-guanidinoethyl)-5-isoquinolinesulfonamide hydrochloride] | 40 µM | 1.3 µM | <1% | 2.3 µM | – | – | CFU+ (concentration range with colony forming units) (H1 human ES cells [1]; 6-well plates, 10,000 cells per well, TeSR1, Matrigel, colonies counted after 10 days): >50.0 µM
